Experimental data: PMC12775819, “Optimizing PSMA-617-based inhibitors through charged linker modifications: Insights into structure-activity relationships” (Theranostics, 2026)
Non-standard residues stand in square brackets, D forms with d. Residues, ends and D or L forms follow the SMILES beside them. *: point of attachment. DOTA = O=C(O)CN1CCN(CC(=O)O)CCN(CC(=O)*)CCN(CC(=O)O)CC1; EuK = O=C(O)CC[C@H](NC(=O)N[C@@H](CCCCN*)C(=O)O)C(=O)O; 2Nal = N[C@@H](Cc1ccc2ccccc2c1)C(=O)O; Trx = NC[C@H]1CC[C@H](C(=O)O)CC1

Tests used:
[1] = Static small-animal PET imaging 1 h and 2 h p.i.; conditions: male, BALB/c nu/nu, mouse, tumor (LNCaP xenograft), iv, 500 pmol, total radioactivity, SUV tumor, 68Ga-labeled, 0.5 nmol i.v., n = 1, SD from VOIs
in vivo = conditions: male, BALB/c nu/nu, mouse, iv, 500 pmol, total radioactivity
[2] = Partition coefficient (logD), n-octanol/PBS pH 7.4; format: physicochemical; conditions: 68Ga-labeled compounds, mean ± SD, read-out: Partition Coefficient [logDoctanol/PBS]
Method: To determine the lipophilicity expressed as distribution coefficient (logD), a two-phase system of n-octanol (500 µl) and phosphate buffered saline (PBS) (490 µl) at pH 7.4 was used (n = 4). Compounds were radiolabeled with [^68Ga]Ga^3+ and the mixture diluted to a concentration of 0.25 µM in PBS. 10 µl of the 0.25 µM dilution were added to the n-octanol / PBS mixture. After extensive mixing, the 2-phase system was centrifuged for 10 min at 14,000 rpm and 4 °C. Two samples from each phase (100 µl) were taken and measured in a γ-gamma counter (PerkinElmer, Waltham, USA). […] The data is presented as the mean value with the standard deviation (SD).

[3] = tested on: PSMA-positive LNCaP cells; experiment: Surface binding and internalization of 68Ga-labeled compounds; format: cell-based, human; conditions: for Internalization Block / Surface Binding Block / Internalization / Surface Binding: 30 nM, 45 min, 37 °C; for Internalization Block / Surface Binding Block: blocked with 2-PMPA 500 µM; for Internalization / Surface Binding: unblocked; for Specific Internalization / Specific Surface Binding: difference of unblocked and blocked values
Method: The PSMA-positive human cell line LNCaP (human lymph node carcinoma of the prostate; ATCC CRL-1740) was cultivated adherently at 37 °C and humidified 5% CO2 with RPMI-1640 (Thermo Fisher Scientific, Germany) supplemented with 10% fetal bovine serum (Sigma-Aldrich, Germany), 1% sodium pyruvate (Life Technologies, Germany) and 1% penicillin/[…] (Thermo Fisher Scientific, Germany). A mixture of trypsin/ethylenediaminetetraacetic acid (0.05% / 0.02%; Thermo Fisher Scientific, Germany) was used for cell harvesting (last authentication: April 2024).
Internalization assays were performed on poly-L-lysine coated 24-well cell culture plates. The day before the experiment, LNCaP cells (10^5 cells/well) were harvested and seeded to the wells. The cells were incubated with the ^68Ga-labeled compounds (250 µl, 30 nM, diluted in RPMI medium) for 45 min at 37 °C. […] The medium was then removed and the cells washed with ice-cold PBS buffer (3 × 1 ml). To remove surface bound compounds, ice-cold glycine buffer (2 × 0.5 ml, 50 mM, pH 2.8) was added to the wells and collected after 5 min in a combined fraction. After washing once with PBS (1 ml), NaOH (0.5 ml, 0.3 M) was added to the cells for lysation. Collected surface-bound, internalized fractions and standards from the stock solutions (25 µl) were measured in a γ-counter. Data was normalized and presented as percentage of the initially added radioactivity bound to 10^5 cells [%IA/10^5 cells].

| Structure (SMILES) | SUV at 1 h ([1]; static PET 1 h p.i.) [SUV] | SUV at 2 h ([1]; static PET 2 h p.i.) [SUV] | SUV at 1 h (in vivo; SUV kidneys) [SUV] | SUV at 2 h (in vivo; SUV kidneys) [SUV] | SUV at 1 h (in vivo; SUV muscle) [SUV] | SUV at 2 h (in vivo; SUV muscle) [SUV] | SUV at 1 h (in vivo; SUV tumor) [SUV] | SUV at 2 h (in vivo; SUV tumor) [SUV] | logD [2] | Internalization Block [3] | Surface Binding Block [3] | Internalization [3] | Surface Binding [3] | Specific Internalization [3] | Specific Surface Binding [3] | tissue to tissue ratio at 1 h (in vivo) | tissue to tissue ratio at 2 h (in vivo) |
| --- | --- | --- | --- | --- | --- | --- | --- | --- | --- | --- | --- | --- | --- | --- | --- | --- | --- |
| O=C(O)CC[C@H](NC(=O)N[C@@H](CCCCNC(=O)[C@H](Cc1c[nH]cn1)NC(=O)[C@H](CCC(=O)O)NC(=O)[C@H](Cc1c[nH]cn1)NC(=O)[C@H](CCC(=O)O)NC(=O)[C@H](Cc1c[nH]cn1)NC(=O)[C@H](CCC(=O)O)NC(=O)[C@H](Cc1ccc2ccccc2c1)NC(=O)[C@H]1CC[C@H](CNC(=O)CN2CCN(CC(=O)O)CCN(CC(=O)O)CCN(CC(=O)O)CC2)CC1)C(=O)O)C(=O)O [[^68Ga]Ga-PS1, metal not drawn] ({DOTA-Trx}-[2Nal]EHEHEH-EuK) | 0.43 ± 0.06 | 0.3 ± 0.11 |  |  |  |  |  |  |  |  |  |  |  |  |  |  |  |
| O=C(O)CC[C@H](NC(=O)N[C@@H](CCCCNC(=O)[C@H](Cc1c[nH]cn1)NC(=O)[C@H](Cc1c[nH]cn1)NC(=O)[C@H](Cc1c[nH]cn1)NC(=O)[C@H](Cc1ccc2ccccc2c1)NC(=O)[C@H]1CC[C@H](CNC(=O)CN2CCN(CC(=O)O)CCN(CC(=O)O)CCN(CC(=O)O)CC2)CC1)C(=O)O)C(=O)O [PS9, EuK-H3-NaI-ChX-DOTA] ({DOTA-Trx}-[2Nal]HHH-EuK) |  |  | 0.98 ± 0.09 | 0.74 ± 0.09 | 0.082 ± 0.002 | 0.07 ± 0.03 | 0.21 ± 0.05 | 0.12 ± 0.03 | -3.2 ± 0.1 |  |  |  |  |  |  |  |  |
| O=C(O)CC[C@H](NC(=O)N[C@@H](CCCCNC(=O)[C@H](Cc1ccc2ccccc2c1)NC(=O)[C@H]1CC[C@H](CNC(=O)[C@H](CCC(=O)O)NC(=O)[C@H](CCC(=O)O)NC(=O)[C@H](CCC(=O)O)NC(=O)CN2CCN(CC(=O)O)CCN(CC(=O)O)CCN(CC(=O)O)CC2)CC1)C(=O)O)C(=O)O [PS8, EuK-NaI-ChX-E3-DOTA] ({DOTA}-EEE[Trx][2Nal]-EuK) |  |  | 3.89 ± 0.65 | 2.7 ± 0.89 | 0.08 ± 0.02 | 0.11 ± 0.02 | 1.32 ± 0.08 | 0.86 ± 0.39 | -3 ± 0.1 |  |  |  |  |  |  |  |  |
| O=C(O)CC[C@H](NC(=O)N[C@@H](CCCCNC(=O)[C@H](Cc1ccc2ccccc2c1)NC(=O)[C@H]1CC[C@H](CNC(=O)[C@H](CCC(=O)O)NC(=O)[C@H](Cc2c[nH]cn2)NC(=O)[C@H](CCC(=O)O)NC(=O)[C@H](Cc2c[nH]cn2)NC(=O)[C@H](CCC(=O)O)NC(=O)[C@H](Cc2c[nH]cn2)NC(=O)CN2CCN(CC(=O)O)CCN(CC(=O)O)CCN(CC(=O)O)CC2)CC1)C(=O)O)C(=O)O [PS4, EuK-NaI-ChX-(EH)3-DOTA] ({DOTA}-HEHEHE[Trx][2Nal]-EuK) |  |  | 3.81 ± 0.15 | 2.77 ± 0.2 | 0.11 ± 0.02 | 0.1 ± 0.03 | 1.15 ± 0.04 | 1.07 ± 0.09 | -3.9 ± 0.3 | 0.149 ± 0.047 %Binding / %Internalization | 0.080 ± 0.009 %Binding / %Internalization | 0.81 ± 0.29 %Binding / %Internalization | 1.43 ± 0.12 %Binding / %Internalization | 0.66 ± 0.68 %Binding / %Internalization | 1.35 ± 0.21 %Binding / %Internalization |  |  |
| O=C(O)CC[C@H](NC(=O)N[C@@H](CCCCNC(=O)[C@H](CCC(=O)O)NC(=O)[C@H](CCC(=O)O)NC(=O)[C@H](CCC(=O)O)NC(=O)[C@H](Cc1ccc2ccccc2c1)NC(=O)[C@H]1CC[C@H](CNC(=O)CN2CCN(CC(=O)O)CCN(CC(=O)O)CCN(CC(=O)O)CC2)CC1)C(=O)O)C(=O)O [PS6, EuK-E3-NaI-ChX-DOTA] ({DOTA-Trx}-[2Nal]EEE-EuK) |  |  | 1.53 ± 0.08 | 0.4 ± 0.05 | 0.11 ± 0.02 | 0.11 ± 0.02 | 0.69 ± 0.07 | 0.85 ± 0.08 | -3.1 ± 0.3 |  |  |  |  |  |  |  |  |
| O=C(O)CC[C@H](NC(=O)N[C@@H](CCCCNC(=O)[C@H](Cc1ccc2ccccc2c1)NC(=O)[C@H]1CC[C@H](CNC(=O)[C@H](Cc2c[nH]cn2)NC(=O)[C@H](Cc2c[nH]cn2)NC(=O)[C@H](Cc2c[nH]cn2)NC(=O)CN2CCN(CC(=O)O)CCN(CC(=O)O)CCN(CC(=O)O)CC2)CC1)C(=O)O)C(=O)O [PS11, EuK-NaI-ChX-H3-DOTA] ({DOTA}-HHH[Trx][2Nal]-EuK) |  |  | 1.24 ± 0.08 | 0.77 ± 0.13 | 0.11 ± 0.02 | 0.1 ± 0.03 | 0.82 ± 0.07 | 0.88 ± 0.09 | -3.6 ± 0.1 |  |  |  |  |  |  |  |  |
| O=C(O)CC[C@H](NC(=O)N[C@@H](CCCCNC(=O)[C@H](Cc1ccc2ccccc2c1)NC(=O)[C@H](CCC(=O)O)NC(=O)[C@H](CCC(=O)O)NC(=O)[C@H](CCC(=O)O)NC(=O)[C@H]1CC[C@H](CNC(=O)CN2CCN(CC(=O)O)CCN(CC(=O)O)CCN(CC(=O)O)CC2)CC1)C(=O)O)C(=O)O [PS7, EuK-NaI-E3-ChX-DOTA] ({DOTA-Trx}-EEE[2Nal]-EuK) |  |  | 1.6 ± 0.12 | 0.59 ± 0.06 | 0.09 ± 0.01 | 0.12 ± 0.02 | 0.71 ± 0.05 | 0.56 ± 0.08 | -3.3 ± 0.1 |  |  |  |  |  |  |  |  |
| O=C(O)CC[C@H](NC(=O)N[C@@H](CCCCNC(=O)[C@H](CCC(=O)O)NC(=O)[C@H](CCC(=O)O)NC(=O)[C@H](CCC(=O)O)NC(=O)[C@H](Cc1ccc2ccccc2c1)NC(=O)[C@H]1CC[C@H](CNC(=O)CN2CCN(CC(=O)O)CCN(CC(=O)O)CCN(CC(=O)O)CC2)CC1)C(=O)O)C(=O)O [[^68Ga]Ga-PS6, metal not drawn] ({DOTA-Trx}-[2Nal]EEE-EuK) |  |  |  |  |  |  |  |  |  |  |  |  |  |  |  | 0.44 ± 0.15 | 2.15 ± 0.22 |
| O=C(O)CC[C@H](NC(=O)N[C@@H](CCCCNC(=O)[C@H](Cc1ccc2ccccc2c1)NC(=O)[C@H](Cc1c[nH]cn1)NC(=O)[C@H](Cc1c[nH]cn1)NC(=O)[C@H](Cc1c[nH]cn1)NC(=O)[C@H]1CC[C@H](CNC(=O)CN2CCN(CC(=O)O)CCN(CC(=O)O)CCN(CC(=O)O)CC2)CC1)C(=O)O)C(=O)O [PS10, EuK-NaI-H3-ChX-DOTA] ({DOTA-Trx}-HHH[2Nal]-EuK) |  |  | 8.13 ± 1.31 | 1.09 ± 0.06 | 0.21 ± 0.03 | 0.06 ± 0.02 | 0.65 ± 0.04 | 0.37 ± 0.05 | -3.7 ± 0.6 |  |  |  |  |  |  |  |  |
| O=C(O)CC[C@H](NC(=O)N[C@@H](CCCCNC(=O)[C@H](Cc1ccc2ccccc2c1)NC(=O)[C@H](Cc1c[nH]cn1)NC(=O)[C@H](CCC(=O)O)NC(=O)[C@H](Cc1c[nH]cn1)NC(=O)[C@H](CCC(=O)O)NC(=O)[C@H](Cc1c[nH]cn1)NC(=O)[C@H](CCC(=O)O)NC(=O)[C@H]1CC[C@H](CNC(=O)CN2CCN(CC(=O)O)CCN(CC(=O)O)CCN(CC(=O)O)CC2)CC1)C(=O)O)C(=O)O [PS2, EuK-NaI-(HE)3-ChX-DOTA] ({DOTA-Trx}-EHEHEH[2Nal]-EuK) |  |  | 1.64 ± 0.1 | 1.01 ± 0.09 | 0.11 ± 0.02 | 0.11 ± 0.01 | 0.78 ± 0.05 | 0.74 ± 0.06 | -3.4 ± 0.3 | 0.21 ± 0.036 %Binding / %Internalization | 0.183 ± 0.024 %Binding / %Internalization | 0.55 ± 0.04 %Binding / %Internalization | 1.01 ± 0.14 %Binding / %Internalization | 0.34 ± 0.24 %Binding / %Internalization | 0.83 ± 0.27 %Binding / %Internalization |  |  |
| O=C(O)CC[C@H](NC(=O)N[C@@H](CCCCNC(=O)[C@H](Cc1c[nH]cn1)NC(=O)[C@H](CCC(=O)O)NC(=O)[C@H](Cc1c[nH]cn1)NC(=O)[C@H](CCC(=O)O)NC(=O)[C@H](Cc1c[nH]cn1)NC(=O)[C@H](CCC(=O)O)NC(=O)[C@H](Cc1ccc2ccccc2c1)NC(=O)[C@H]1CC[C@H](CNC(=O)CN2CCN(CC(=O)O)CCN(CC(=O)O)CCN(CC(=O)O)CC2)CC1)C(=O)O)C(=O)O [PS1, EuK-(HE)3-NaI-ChX-DOTA] ({DOTA-Trx}-[2Nal]EHEHEH-EuK) |  |  | 1.71 ± 0.2 | 1.32 ± 0.15 | 0.09 ± 0.01 | 0.08 ± 0.02 | 0.43 ± 0.06 | 0.3 ± 0.11 | -3.5 ± 0.2 | 0.314 ± 0.024 %Binding / %Internalization | 0.069 ± 0.012 %Binding / %Internalization | 0.66 ± 0.14 %Binding / %Internalization | 1.15 ± 0.17 %Binding / %Internalization | 0.35 ± 0.3 %Binding / %Internalization | 1.09 ± 0.34 %Binding / %Internalization |  |  |
